# Measurements: patent US20090274773A1, “ANTIPROLIFERATIVE COMBINATION COMPRISING CYC-682 AND A CYTOTOXIC AGENT” (Cyclacel Limited, priority 2005, published 2009)
# Tests used:
# Assay type in all cases: cell-based, human
# [1] = test system: COLO205 cancer cell line; experiment: CYC682 drug-combination study (MTT, Chou and Talalay combination index, isobolograms)
# Method: (§1) For simultaneous drug exposure, cells were seeded at 2×10^3 cells/well in 96-well plates and treated 24 hours later with increasing concentrations of CYC682 alone or with various concentrations of another drug corresponding to the IC20, IC40 or IC60 values. After approximately four doubling times (120 hours), the growth inhibitory effect was measured by the MTT assay.
# (§2) Cells were seeded at 2×10^3 cells/well in 96-well plates and allowed to grow for 24 hour. Cells were then exposed to various concentrations of the first drug for 1 hour/24 hours/48 hours, the drug was removed, the cells were washed and the second drug was added. After additional drug exposure, the second drug was removed, the cells were washed and incubated in drug-free medium for 72 hours. Growth inhibition was then determined by the MTT assay.
# (§3) Effects of drug combinations were evaluated using the Chou and Talalay method which is based on the median-effect principle (Chou T C, Talalay P. Quantitative analysis of dose-effect relationships: the combined effects of multiple drugs or enzyme inhibitors. Adv Enzyme Regul. 1984; 22:27-55). […] On the basis of the slope of the curve for each drug in a combination, it can be determined whether the drugs have mutually nonexclusive effects (e.g., independent or interactive modes of action).
# (§4) The combination index (CI) is then determined by the equation:
# (§5) CI=[(C)1/(Cx)1]+[(C)2/(Cx)2]+[α(C)1(C)2/(Cx)1(Cx)2],
# (§6) where (Cx)1 is the concentration of drug 1 required to produce an x percent effect of that drug alone, and (C)1, the concentration of drug 1 required to produce the same x percent effect in combination with (C)2. If the mode of action of the drugs is mutually exclusive or nonexclusive, then α is 0 or 1, respectively. CI values will be calculated with this equation using different values of fa (i.e., for different degrees of cell growth inhibition). CI values of <1 indicate synergy, the value of 1 indicates additive effects, and values >1 indicate antagonism. Data were analyzed on an IBM-PC computer using concentration-effect analysis for microcomputer software (Biosoft, Cambridge, UK). For statistical analysis and graphs we will use Instat and Prism software (GraphPad, San Diego, USA). The dose-effect relationships for the drugs tested, alone or in paired combinations, were subjected to median-effect plot analysis to determine their relative potency (IC50), shape (m), and conformity (r) in each selected cell line. As stated above, the IC50 and m values were respectively used to calculate synergism and antagonism on the basis of the CI equation. Results were expressed as the mean±standard deviation of at least 3 experiments performed in duplicate. In each experiment, cells were exposed to the paired combinations for 48 hours as described above. Means and standard deviations were compared using Student's t-test (two-sided p value).
# (§7) The effect of sequential and simultaneous exposure (FIG. 2) to CYC682 with oxaliplatin, doxorubicin, docetaxel and gemcitabine was studied in two sensitive colon cancer cell lines—COLO205 and HCT116 using combination indices that represent an affected fraction for the concentration of drugs corresponding to IC50 as previously described by Chou and Talalay.
# [2] = test system: HCT116 cancer cell line; experiment: as above
# Method: as §1, §2, §3, §4, §5, §6, §7
# [3] = test system: NSCLC cell line H1299; experiment: CNDAC combinations (alamar blue, Calcusyn Combination Index); settings: for Interaction with CNDAC (in words), summary of Table 3: combination with CNDAC, regime not specified; for Combination Index at ED50, Concomitant / Combination Index at ED75, Concomitant / Combination Index at ED90, Concomitant: simultaneous treatment 72 h
# Method: (§8) Experiments in the NSCLC cell lines H1299 or RERF-LC-MA were performed in 96-well plates, with cells seeded at a density of 3,000/well, in DMEM containing 10% (v/v) FCS. Stock solutions of all drugs were made up in dimethylsulfoxide (DMSO), with the exception of gemcitabine, which was dissolved in 0.9% (w/v) sterile saline solution.
# For experimental assessment of potential synergistic interactions, the concomitant treatment regime involved simultaneous treatment of cells with CNDAC and the other agent under investigation for 72 h, alongside suitable controls of cells treated with the individual compounds alone for 72 hr. In the sequential treatment regimes, one drug was added to the cells 2 h after plating, and left for 24 h. Media was then aspirated, replaced with fresh media containing the second drug and incubated for 72 h. The two individual treatment controls for the sequential treatment regime involved substituting one of the drug treatments with drug-free media. […] Drug interactions were analysed using the Calcusyn software package (BioSoft, Cambridge, U.K.) described below.
# [4] = test system: NSCLC cell line RERF-LC-MA; experiment: as above; settings: named agent in combination with CNDAC, simultaneous treatment 72 h
# Method: as §8
# For experimental assessment of potential synergistic interactions, the concomitant treatment regime involved simultaneous treatment of cells with CNDAC and the other agent under investigation for 72 h, alongside suitable controls of cells treated with the individual compounds alone for 72 hr. In the sequential treatment regimes, one drug was added to the cells 2 h after plating, and left for 24 h. Media was then aspirated, replaced with fresh media containing the second drug and incubated for 72 h. The two individual treatment controls for the sequential treatment regime involved substituting one of the drug treatments with drug-free media. After drug treatment, the number of cells in each well was estimated by incubating for 1 h in media containing 10% alamar blue (Roche, Lewes, East Sussex, U.K.) and measuring the absorbance at 488-595 nm. Drug interactions were analysed using the Calcusyn software package (BioSoft, Cambridge, U.K.) described below. A Combination Index (C.I.) of 1 indicates an additive drug interaction, whereas a C.I. greater than 1 is antagonistic and a score lower than 1 is synergistic.
# [5] = named agent in combination with CNDAC, H1299
# [6] = named agent in combination with CNDAC, H1299, CNDAC 24 h then other agent 72 h
# [7] = named agent in combination with CNDAC, H1299, named agent 24 h then CNDAC 72 h
structure (smiles),measurement,setting,value
CC(=O)O[C@@]12CO[C@@H]1C[C@H](O)[C@@]1(C)C(=O)[C@H](O)C3=C(C)[C@@H](OC(=O)[C@H](O)[C@@H](NC(=O)OC(C)(C)C)c4ccccc4)C[C@@](O)([C@@H](OC(=O)c4ccccc4)[C@H]21)C3(C)C [Docetaxel],Interaction with CYC682 (isobologram),"[1]; COLO205, named agent given prior to CYC682",synergistic effect
same,Interaction with CYC682 (isobologram),"[2]; HCT116, named agent given prior to CYC682",synergistic effect
same,"Interaction with CNDAC (in words), summary of Table 3",[3],synergistic drug interactions
same,"Combination Index at ED50, Concomitant",[3]; [5],0.93
same,"Combination Index at ED75, Concomitant",[3]; [5],1.13
same,"Combination Index at ED90, Concomitant",[3]; [5],2.01
same,"Combination Index at ED50, Concomitant",[4],0.9
same,"Combination Index at ED75, Concomitant",[4],0.97
same,"Combination Index at ED90, Concomitant",[4],1.1
COc1cccc2c1C(=O)c1c(O)c3c(c(O)c1C2=O)C[C@@](O)(C(=O)CO)C[C@@H]3O[C@H]1C[C@H](N)[C@H](O)[C@H](C)O1 [Doxorubicin],Interaction with CYC682 (isobologram),"[1]; COLO205 (FIG. 5), sequential exposure, at high concentrations",synergistic
same,Interaction with CYC682 (isobologram),"[2]; HCT116 (FIG. 5), sequential exposure, at high concentrations",synergistic
same,Interaction with CNDAC at ED50 (in words),"[3]; H1299, concomitant treatment",synergy
same,Interaction with CNDAC at ED50 (in words),"[3]; H1299, pre-treatment with named agent",synergy
same,"Interaction with CNDAC (in words), summary of Table 3",[3],synergistic drug interactions
same,"Combination Index at ED75, CNDAC pretreatment",[3]; [6],1.24
same,"Combination Index at ED90, CNDAC pretreatment",[3]; [6],2.23
same,"Combination Index at ED50, CNDAC pretreatment","[3]; named agent in combination with CNDAC, H1299, CNDAC 24 h then other agent 72 h, C.I. <1 synergistic, 1 additive, >1 antagonistic",0.95
same,"Combination Index at ED50, Other (named agent) pretreatment",[3]; [7],0.64
same,"Combination Index at ED75, Other (named agent) pretreatment",[3]; [7],0.83
same,"Combination Index at ED90, Other (named agent) pretreatment",[3]; [7],1.63
same,"Combination Index at ED50, Concomitant",[3]; [5],0.63
same,"Combination Index at ED75, Concomitant",[3]; [5],1.14
same,"Combination Index at ED90, Concomitant",[3]; [5],2.75
